# According to patent US11420966B2 (ACLARIS THERAPEUTICS, INC., priority 2019, dated 2022):
# Legend:
# Tyk-2 = Tyk-2 (Homo sapiens (Human), UniProt P29597); test: Tyk-2 enzyme activity assay (Thermo Fisher SelectScreen, Z-lyte); type: biochemical; settings: read-out: Tyk-2 Inhibition IC50
# Method: (§1) JAK1, JAK2, JAK3, and Tyk-2 Enzyme Activity Assays
# (§2) The inhibitory potency of candidate compounds of JAK1, JAK2, and Tyk-2 was done at Thermo Fisher Scientific in their Selectscreen using a Z-lyte assay. Following are the assay details for each enzyme.
# TYK2: The 2×TYK2/Tyr 03 mixture is prepared in 50 mM HEPES pH 6.5, 0.01% BRIJ-35, 10 mM MgCl2, 1 mM EGTA, 0.02% NaN3. The final 10 μL Kinase Reaction consists of 3.75-15 ng TYK2 and 2 M Tyr 03 in 50 mM HEPES pH 7.0, 0.01% BRIJ-35, 10 mM MgCl2, 1 mM EGTA, 0.01% NaN3. After the one hour KinaseReaction incubation, 5 μL of a 1:4096 dilution of Development Reagent A is added.
# (§3) Data reduction for JAK1, JAK2 and TYK2 is done the same, independent of the enzyme run. In summary, background signal is defined in the absence of enzyme and uninhibited signal is defined in the presence of vehicle (2% DMSO) alone. Compounds were evaluated in an 11 point dose-response ranging from […] to 0.34 nM. IC50 values of compounds are determined using a 4 parameter logistical fit of emission ratio as a function of the concentration of compound.
# [1] = tested on: IL-12 stimulated STAT4 phosphorylation on Tyr693 (JAK2/TYK2); test: JAK2/TYK2 cellular target modulation: IL-12 stimulated phospho-STAT4 in PBMC; type: cell-based; settings: human PBMC, IL-12 1.7 ng/ml; read-out: IL12-STAT4 IC50
# Source text: (§4) JAK Cellular Target Modulation Assays
# (§5) Target modulation was based upon the ability of a compound to inhibit JAK isoform specific phosphorylation of selected substrates. IL-2 stimulated STAT5 phosphorylation on Tyr694 was used to assess JAK1/3 compound selectivity. GM-CSF stimulated STAT5 phosphorylation on Tyr694 was used to assess JAK2 compound selectivity. IFNγ stimulated STAT1 phosphorylation on Tyr701 was used to assess JAK1/2 compound selectivity. IL-12 stimulated STAT4 phosphorylation on Tyr693 was used to assess JAK2/TYK2 compound selectivity. For all four assays, human PBMC from frozen stocks were thawed, pelleted, resuspended in complete media (90% RPMI, 10% heat inactivated FBS, 10 mM HEPES, 47 μM 2-ME, pen/strep) and placed in wells of a 96 well V-bottom plate at 200,000 per well in 120 μl complete media. Compounds were added as 15 μl per well of 10× working stock solutions in complete media with 1% DMSO (or medium with 1% DMSO for controls) and placed on a plate shaker in a 37° C. incubator with 5% CO2 for 1 hour with gentle shaking (setting of 3). Stimulation used the addition of soluble cytokines. For the JAK1/3 phospho-STAT5 assay, 15 μl of 10× working stock recombinant human IL-2 was added to a final concentration of 25 ng/ml. For the JAK2 phospho-STAT5 assay, 15 μl of 10× working stock recombinant human GM-CSF was added to a final concentration of 5 ng/ml. For the JAK1/2 phospho-STAT1 assay, 15 μl of 10× working stock of recombinant human IFNγ was added to a final concentration of 10 ng/ml. For the JAK2/TYK2 phospho-STAT4 assay, 15 μl of 10× working stock of recombinant human IL-12 was added to a final concentration of 1.7 ng/ml. Plates were then placed back on the plate shaker in the incubator for an additional 5, 5, 10, and 25 minutes respectively upon which the plates were removed from the incubator, sealed with a plate sealer and the cells pelleted at 400×g for 5 minutes. After pelleting, the media was removed by aspiration and the cells were lysed in assay specific cell lysis buffer. The levels of phospho-STATS were determined using a Phospho (Tyr694) STAT5a,b Whole Cell Lysate kit from Meso Scale Discovery. Levels of phospho-STAT1 were determined using a CST-PathScan Phospho-STAT1 (Tyr701) Sandwich ELISA kit. Levels of phospho-STAT4 were determined using a Phospho-STAT4 (Tyr693) Whole Cell Lysate kit from Meso Scale Discovery.
# JAK1 = JAK1 (Homo sapiens (Human), UniProt P23458); test: JAK1 enzyme activity assay (Thermo Fisher SelectScreen, Z-lyte); type: biochemical; settings: read-out: JAK1 Inhibition IC50
# Chain of JAK1 (P23458 whole entry): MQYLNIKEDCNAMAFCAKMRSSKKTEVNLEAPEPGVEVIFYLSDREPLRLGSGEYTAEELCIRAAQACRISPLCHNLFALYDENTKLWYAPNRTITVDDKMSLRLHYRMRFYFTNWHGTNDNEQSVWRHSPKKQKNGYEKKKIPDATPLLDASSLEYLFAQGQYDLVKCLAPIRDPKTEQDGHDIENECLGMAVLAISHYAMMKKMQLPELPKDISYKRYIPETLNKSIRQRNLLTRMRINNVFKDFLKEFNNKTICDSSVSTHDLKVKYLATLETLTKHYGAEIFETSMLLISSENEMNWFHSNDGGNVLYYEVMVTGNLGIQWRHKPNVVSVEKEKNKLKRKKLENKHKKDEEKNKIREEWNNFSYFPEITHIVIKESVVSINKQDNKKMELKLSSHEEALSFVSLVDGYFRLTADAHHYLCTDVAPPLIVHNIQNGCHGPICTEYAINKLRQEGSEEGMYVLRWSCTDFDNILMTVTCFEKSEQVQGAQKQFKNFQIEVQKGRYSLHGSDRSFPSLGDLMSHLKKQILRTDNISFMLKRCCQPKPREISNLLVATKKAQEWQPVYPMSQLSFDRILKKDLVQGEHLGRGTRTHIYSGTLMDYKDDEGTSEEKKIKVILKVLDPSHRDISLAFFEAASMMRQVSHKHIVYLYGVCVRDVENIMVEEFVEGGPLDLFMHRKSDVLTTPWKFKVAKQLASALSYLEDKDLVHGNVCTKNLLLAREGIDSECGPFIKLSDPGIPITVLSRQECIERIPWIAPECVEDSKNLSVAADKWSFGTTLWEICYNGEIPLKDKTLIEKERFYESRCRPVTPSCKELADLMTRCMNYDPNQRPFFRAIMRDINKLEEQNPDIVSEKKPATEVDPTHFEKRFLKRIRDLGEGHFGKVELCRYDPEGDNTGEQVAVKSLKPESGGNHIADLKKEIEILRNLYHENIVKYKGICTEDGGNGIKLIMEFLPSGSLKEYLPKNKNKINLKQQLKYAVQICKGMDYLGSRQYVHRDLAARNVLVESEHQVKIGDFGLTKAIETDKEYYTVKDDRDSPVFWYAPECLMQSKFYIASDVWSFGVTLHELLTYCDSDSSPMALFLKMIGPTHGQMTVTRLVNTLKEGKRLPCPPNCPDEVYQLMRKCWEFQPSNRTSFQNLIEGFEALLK
# Method: as §1, §2
# JAK: The 2×JAK-enzyme/Tyr 06 mixture is prepared in 50 mM HEPES pH 6.5, 0.01% BRIJ-35, 10 mM MgCl2, 1 mM EGTA, 0.02% NaN3. The final 10 μL of the Kinase Reaction consists of 21.2-91.5 ng JAK and 2 M Tyr 06 in 50 mM HEPES pH 7.0, 0.01% BRIJ-35, 10 mM MgCl2, 1 mM EGTA, 0.01% NaN3. After the one hour Kinase Reaction incubation, 5 μL of a 1:128 dilution of Development Reagent is added.
# as §3
# [2] = tested on: IFNγ stimulated STAT1 phosphorylation on Tyr701 (JAK1/2); test: JAK1/2 cellular target modulation: IFNγ stimulated phospho-STAT1 in PBMC; type: cell-based; settings: human PBMC, IFNγ 10 ng/ml; read-out: Infγ-STAT1 IC50
# Source text: as §4, §5
# [3] = tested on: IL-2 stimulated STAT5 phosphorylation on Tyr694 (JAK1/3); test: JAK1/3 cellular target modulation: IL-2 stimulated phospho-STAT5 in PBMC; type: cell-based; settings: human PBMC, IL-2 25 ng/ml; read-out: IL2-STAT5 IC50
# Source text: as §4, §5
# JAK2 = JAK2 (Homo sapiens (Human), UniProt O60674); test: JAK2 enzyme activity assay (Thermo Fisher SelectScreen, Z-lyte); type: biochemical; settings: read-out: JAK2 Inhibition IC50
# Chain of JAK2 (O60674 whole entry): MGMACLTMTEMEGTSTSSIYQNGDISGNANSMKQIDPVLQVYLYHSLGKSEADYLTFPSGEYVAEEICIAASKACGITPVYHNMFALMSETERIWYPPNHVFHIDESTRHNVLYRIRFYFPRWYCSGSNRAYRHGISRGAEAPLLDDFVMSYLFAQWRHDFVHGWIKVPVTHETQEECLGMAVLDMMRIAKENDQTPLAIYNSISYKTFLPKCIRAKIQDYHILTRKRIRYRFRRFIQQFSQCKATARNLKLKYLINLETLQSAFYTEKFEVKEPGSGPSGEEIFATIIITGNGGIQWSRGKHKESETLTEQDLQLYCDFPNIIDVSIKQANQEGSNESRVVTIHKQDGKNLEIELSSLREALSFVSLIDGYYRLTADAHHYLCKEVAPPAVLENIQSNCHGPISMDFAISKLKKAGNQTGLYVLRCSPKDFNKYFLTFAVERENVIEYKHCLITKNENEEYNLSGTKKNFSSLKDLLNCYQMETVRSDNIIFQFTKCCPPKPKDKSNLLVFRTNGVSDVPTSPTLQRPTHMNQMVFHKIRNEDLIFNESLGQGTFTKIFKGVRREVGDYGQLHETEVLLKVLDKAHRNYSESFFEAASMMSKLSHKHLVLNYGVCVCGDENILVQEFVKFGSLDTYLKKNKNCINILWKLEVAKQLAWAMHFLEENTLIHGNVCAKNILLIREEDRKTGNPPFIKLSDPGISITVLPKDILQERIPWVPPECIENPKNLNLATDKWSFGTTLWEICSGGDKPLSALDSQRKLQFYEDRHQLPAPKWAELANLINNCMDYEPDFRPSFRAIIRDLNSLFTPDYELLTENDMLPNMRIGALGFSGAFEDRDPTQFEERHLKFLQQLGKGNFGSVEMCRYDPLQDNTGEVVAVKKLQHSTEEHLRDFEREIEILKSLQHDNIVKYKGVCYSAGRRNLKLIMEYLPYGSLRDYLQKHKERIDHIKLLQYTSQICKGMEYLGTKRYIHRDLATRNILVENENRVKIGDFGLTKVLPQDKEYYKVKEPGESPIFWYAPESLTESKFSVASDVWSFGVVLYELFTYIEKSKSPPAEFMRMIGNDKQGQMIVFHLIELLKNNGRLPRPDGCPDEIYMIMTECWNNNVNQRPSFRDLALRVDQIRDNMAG
# Method: as §1, §2
# JAK2: The 2×JAK2/Tyr 06 mixture is prepared in 50 mM HEPES pH 7.5, 0.01% BRIJ-35, 10 mM MgCl2, 1 mM EGTA. The final 10 μL Kinase Reaction consists of 0.12-0.5 ng JAK2 and 2 M Tyr 06 in 50 mM HEPES pH 7.5, 0.01% BRIJ-35, 10 mM MgCl2, 1 mM EGTA. After the one hour Kinase Reaction incubation, 5 μL of a 1:128 dilution of Development Reagent A is added.
# as §3
# JAK3 (a.a. 781-1124) = JAK3 (a.a. 781-1124) (Homo sapiens (Human), UniProt P52333); test: JAK3 enzyme activity assay (SRCtide phosphorylation, Caliper); type: biochemical; settings: 1 uM ATP; read-out: JAK3 Inhibition IC50
# Chain of JAK3 (a.a. 781-1124) (P52333 781-1124): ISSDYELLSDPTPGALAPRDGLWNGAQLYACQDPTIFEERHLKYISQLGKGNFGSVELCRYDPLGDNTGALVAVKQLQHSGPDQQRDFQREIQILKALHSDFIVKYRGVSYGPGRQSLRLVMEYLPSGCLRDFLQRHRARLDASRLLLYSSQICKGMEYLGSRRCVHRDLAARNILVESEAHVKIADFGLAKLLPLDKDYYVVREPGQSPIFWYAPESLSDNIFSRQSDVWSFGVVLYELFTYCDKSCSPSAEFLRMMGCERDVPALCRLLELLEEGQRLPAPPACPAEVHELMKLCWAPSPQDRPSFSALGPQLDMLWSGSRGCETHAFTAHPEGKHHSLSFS
# Method: as §1
# Kinase reactions were run in a 384-well Greiner plate with 2% final DMSO concentration under the buffer conditions of 20 mM HEPES, pH 7.5, 10 mM MgCl2, 0.01% BSA, and 0.0005% Tween-20. The kinase reaction components were 2.5 nM JAK3, 1 μM SRCtide peptide and 1 uM ATP. Examples were tested in dose-response starting at 2 M (11 concentrations, 3-fold serial dilution, duplicate reactions). The reactions were incubated at room temperature for 40 minutes, then stopped by adding a 1:1 volume of 30 mM EDTA in 20 mM HEPES, pH 7.5 (15 mM EDTA final). After the reaction was stopped, the phosphorylated and unphosphorylated peptides were separated and quantified using a Caliper LC3000/EZ-Reader system and HTS Well Analyzer Software (Caliper, A PerkinElmer Company, Hopkinton, Mass.). GraFit (Erithacus Software Ltd., Horley, U.K.) was used to calculate inhibitor potency by fitting dose-response data to the 4-parameter logistical IC50 equation.
# Chain of Tyk-2 (P29597 whole entry): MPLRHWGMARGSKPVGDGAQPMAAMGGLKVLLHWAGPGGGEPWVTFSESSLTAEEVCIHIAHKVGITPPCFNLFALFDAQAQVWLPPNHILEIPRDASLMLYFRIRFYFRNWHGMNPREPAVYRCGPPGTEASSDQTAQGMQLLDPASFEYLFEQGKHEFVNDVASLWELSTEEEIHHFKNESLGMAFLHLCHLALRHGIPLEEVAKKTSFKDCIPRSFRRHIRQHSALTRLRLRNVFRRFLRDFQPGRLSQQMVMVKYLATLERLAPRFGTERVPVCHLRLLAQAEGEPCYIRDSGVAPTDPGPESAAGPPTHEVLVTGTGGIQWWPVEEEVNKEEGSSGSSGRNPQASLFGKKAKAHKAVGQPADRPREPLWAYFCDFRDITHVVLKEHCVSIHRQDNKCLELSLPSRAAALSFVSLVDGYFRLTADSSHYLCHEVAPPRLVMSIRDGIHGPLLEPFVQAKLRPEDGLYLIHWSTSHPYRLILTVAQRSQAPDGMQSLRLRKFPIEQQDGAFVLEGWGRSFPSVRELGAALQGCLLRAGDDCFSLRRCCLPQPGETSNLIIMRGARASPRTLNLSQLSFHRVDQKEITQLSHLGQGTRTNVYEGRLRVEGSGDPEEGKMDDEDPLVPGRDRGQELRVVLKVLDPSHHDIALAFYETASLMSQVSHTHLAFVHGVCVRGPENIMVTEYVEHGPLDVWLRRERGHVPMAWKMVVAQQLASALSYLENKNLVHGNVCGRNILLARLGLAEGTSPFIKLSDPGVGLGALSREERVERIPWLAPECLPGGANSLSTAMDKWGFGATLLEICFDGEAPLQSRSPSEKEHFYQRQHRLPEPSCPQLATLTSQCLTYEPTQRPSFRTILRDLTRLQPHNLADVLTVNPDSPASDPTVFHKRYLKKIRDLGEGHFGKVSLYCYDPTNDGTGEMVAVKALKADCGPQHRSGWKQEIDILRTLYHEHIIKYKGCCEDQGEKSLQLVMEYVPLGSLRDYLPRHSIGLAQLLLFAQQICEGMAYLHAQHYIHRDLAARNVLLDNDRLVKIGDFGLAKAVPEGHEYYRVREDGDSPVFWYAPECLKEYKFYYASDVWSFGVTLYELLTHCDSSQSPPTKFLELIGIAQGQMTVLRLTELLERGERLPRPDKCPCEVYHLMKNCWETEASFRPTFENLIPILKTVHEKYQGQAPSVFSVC
IC50 (Tyk-2) [nM],IC50 [1] [nM],IC50 (JAK1) [nM],IC50 [2] [nM],IC50 [3] [nM],IC50 (JAK2) [nM],IC50 (JAK3 (a.a. 781-1124)) [nM],SMILES
≤ 10,≤ 100,≤ 10,≤ 100,≤ 100,≤ 10,≤ 10,"C[C@H]1C[C@@H](Nc2c(-c3ncco3)cnc3[nH]ccc23)CN(C(=O)CC#N)C1 (single isomer, unassigned) [Example 10]"
10 to 100,100 to 1000,≤ 10,100 to 1000,≤ 100,10 to 100,≤ 10,"N#CCC(=O)N1CCC[C@@H](Nc2c(-c3ccn(C(F)F)n3)cnc3[nH]ccc23)C1 [Example 2, (R)-3-(3-((5-(1-(difluoromethyl)-1H-pyrazol-3-yl)-1H-pyrrolo[2,3-b]pyridin-4-yl)amino)piperidin-1-yl)-3-oxopropanenitrile]"
≤ 10,100 to 1000,≤ 10,≤ 100,≤ 100,≤ 10,≤ 10,"N#CCC(=O)N1CCC[C@@H](Nc2c(-c3nccs3)cnc3[nH]ccc23)C1 [Example 4, (R)-3-oxo-3-(3-((5-(thiazol-2-yl)-1H-pyrrolo[2,3-b]pyridin-4-yl)amino)piperidin-1-yl)propanenitrile]"
10 to 100,> 1000,≤ 10,100 to 1000,≤ 100,10 to 100,≤ 10,"N#CCC(=O)N1CCC[C@@H](Nc2c(-c3ccn[nH]3)cnc3[nH]ccc23)C1 [Example 18, (R)-3-(3-((5-(1H-pyrazol-5-yl)-1H-pyrrolo[2,3-b]pyridin-4-yl)amino)piperidin-1-yl)-3-oxopropanenitrile]"
10 to 100,> 1000,≤ 10,–,100 to 1000,10 to 100,≤ 10,"CNC(=O)c1csc(-c2cnc3[nH]ccc3c2N[C@@H]2CCCN(C(=O)CC#N)C2)n1 [Example 35, (R)-2-(4-((1-(2-cyanoacetyl)piperidin-3-yl)amino)-1H-pyrrolo[2,3-b]pyridin-5-yl)-N-methylthiazole-4-carboxamide]"

# Second part, the compound before the results:
SMILES,IC50 (Tyk-2) [nM],IC50 [1] [nM],IC50 (JAK1) [nM],IC50 [2] [nM],IC50 [3] [nM],IC50 (JAK2) [nM],IC50 (JAK3 (a.a. 781-1124)) [nM]
"N#CCC(=O)N1CCC[C@@H](Nc2c(-c3ncco3)cnc3[nH]ccc23)C1 [Example 5, (R)-3-(3-((5-(oxazol-2-yl)-1H-pyrrolo[2,3-b]pyridin-4-yl)amino)piperidin-1-yl)-3-oxopropanenitrile]",≤ 10,100 to 1000,≤ 10,≤ 100,≤ 100,≤ 10,≤ 10
"Cc1noc(-c2cnc3[nH]ccc3c2N[C@@H]2CCCN(C(=O)CC#N)C2)n1 [Example 6, (R)-3-(3-((5-(3-methyl-1,2,4-oxadiazol-5-yl)-1H-pyrrolo[2,3-b]pyridin-4-yl)amino)piperidin-1-yl)-3-oxopropanenitrile]",10 to 100,> 1000,≤ 10,100 to 1000,≤ 100,10 to 100,≤ 10
"N#CCC(=O)N1CCC[C@@H](Nc2c(-c3nnco3)cnc3[nH]ccc23)C1 [Example 7, (R)-3-(3-((5-(1,3,4-oxadiazol-2-yl)-1H-pyrrolo[2,3-b]pyridin-4-yl)amino)piperidin-1-yl)-3-oxopropanenitrile]",10 to 100,> 1000,10 to 100,100 to 1000,100 to 1000,10 to 100,10 to 100
"O[C@H]1CC[C@@H](Nc2c(-c3ncco3)cnc3[nH]ccc23)C1 [Example 13, (1S,3R)-3-((5-(oxazol-2-yl)-1H-pyrrolo[2,3-b]pyridin-4-yl)amino)cyclopentan-1-ol]",100 to 1000,> 1000,10 to 100,> 1000,100 to 1000,10 to 100,10 to 100
"Cc1ccnc(-c2cnc3[nH]ccc3c2N[C@@H]2CCCN(C(=O)CC#N)C2)c1 [Example 15, (R)-3-(3-((5-(4-methylpyridin-2-yl)-1H-pyrrolo[2,3-b]pyridin-4-yl)amino)piperidin-1-yl)-3-oxopropanenitrile]",10 to 100,> 1000,≤ 10,100 to 1000,≤ 100,10 to 100,≤ 10
"Cc1nc(-c2cnc3[nH]ccc3c2N[C@@H]2CCCN(C(=O)CC#N)C2)no1 [Example 19, (R)-3-(3-((5-(5-methyl-1,2,4-oxadiazol-3-yl)-1H-pyrrolo[2,3-b]pyridin-4-yl)amino)piperidin-1-yl)-3-oxopropanenitrile]",100 to 1000,> 1000,10 to 100,> 1000,100 to 1000,100 to 1000,10 to 100
"Cc1cccc(-c2cnc3[nH]ccc3c2N[C@@H]2CCCN(C(=O)CC#N)C2)n1 [Example 20, (R)-3-(3-((5-(6-methylpyridin-2-yl)-1H-pyrrolo[2,3-b]pyridin-4-yl)amino)piperidin-1-yl)-3-oxopropanenitrile]",100 to 1000,> 1000,≤ 10,100 to 1000,≤ 100,10 to 100,10 to 100
